Where “and” joins values, the source holds several entries; their conditions need not be identical. Equal values may be shown once.
Experiments:
C57BL/6 mice = experiment: Mouse Head Twitch Response (HTR) assay to assess hallucinogenic potential; assay type: in vivo; conditions: 3 mg/kg i.p.; for mean HTR: 0-15 min interval (preliminary screening); for HTR compared with the HTR response for 5-Br-DMT (one-way ANOVA, Dunnett): alpha 0.05
Protocol: All experiments were approved by the University of Calgary Animal Care and Use Committee in accordance with Canadian Council on Animal Care guidelines. C57BL/6-Elite mixed sex mice were obtained from Charles River (8 weeks old). Until the first experiment, mice were group-housed, then single-housed on a 12:12 h light/dark schedule (lights on at 07:00 hours) with ad libitum access to food and water. Before any behavioral screening, mice were handled and exposed to the testing chamber for at least 5 min each day for three successive days and habituated to the experimental room 1 h before testing. The testing chamber was cleaned with a 70% ethanol solution between experiments to eliminate odor from other mice. Drug compounds (100 mM in DMSO) were diluted in sterile excipient (10% EtOH/15% PEG400 in ddH2O) to 3 mg/kg (preliminary screening) or 0.5, 2, 4, 7, and 10 mg/kg (dose-curve analysis) and administered using intraperitoneal (i.p.) drug injections. […] HTR was analyzed during the 0-to-15-minute window following drug administration. […] Mean HTR between 10 and 5 signifies reduced hallucinogenic potential relative to positive controls.

[1] = system: human model (NT2) neurons; experiment: Neuroplastogenicity (neurite outgrowth) assay in NT2 neurons; assay type: cell-based; parameters: key: a positive (+) designation indicating strong evidence of enhanced neurite outgrowth in drug-treated NT2 cells compared to vehicle-treated cells; a negative (−) designation indicating weak or no evidence of enhanced neurite outgrowth in drug-treated NT2 cells compared to vehicle-treated cells; conditions: 1 or 10 μM, 48 h, visual inspection vs vehicle (0.1% DMSO)
From the text: Classic psychedelics such as psilocybin and DMT show potential to treat anxiety and depression, and it has been theorized that such long-term improvements arise because these drugs rapidly and lastingly stimulate neuroplasticity (Calder and Hasler, 2023, Neuropsychopharmacol. 48:104-112). Thus, it was of interest to determine the potential of new compounds as neuroplastogens. Herein, we assess the capacity of various compounds to enhance neurite outgrowth in human model (NT2) neurons.
Human NT2/D1 precursor cells were purchased from the American Type Culture Collection (ATCC, Manassas, VA, USA). Neuronal differentiation was carried out as previously described (Roloff et al., 2015, PloS ONE 10:e0118536) with minor modifications. Firstly, NT2/D1 cells were seeded in T-25 suspension culture flasks (REF #690190, Greiner bio-one, Germany). Each flask contains a minimum of 5×10^6 cells in 10 ml of DMEM/F12 supplemented with 10% fetal bovine serum (FBS), 1% penicillin and streptomycin and 10 μM retinoic acid (RA) medium to start neuronal differentiation. The cells were cultured for 3 days in free floating medium. At the end of the incubation cells were trypsinized and collected by centrifugation, mechanically dispersed, and counted. Counted cells were seeded along Poly D-Lysine (PDL) coated cover slips (12 mm; diameter round, Fisher Scientific; GG-12-PDL) containing a minimum of 0.1×10^5 cells in culture medium without RA. The next day culture medium was replaced with RA medium containing 2% of FBS. These cells cultured for 5 days and two days later, RA medium was changed.
After cells had successfully attached and established along coverslips, the RA medium was replaced with new medium containing 2% FBS and one of the following: (1) test compound (1 or 10 μM), (2) RhoK (ROCK) inhibitor Y-27632 (1 μM) as a positive control (Dihydrochloride; Sigma-Aldrich) (Roloff et al., 2015, PloS ONE 10:e0118536); (3) DMT (1 or 10 μM) as a positive control (Calder and Hasler, 2023, Neuropsychopharmacol. 48:104-112), or (4) vehicle (0.1% DMSO) as a negative control. These cells were incubated for 48 hours under standard conditions (370C, 5% CO2). The cells cultured along coverslips were collected after 48 hours of treatment. The coverslips washed with calcium chloride and magnesium chloride-free phosphate buffered saline (PBS) pH 7.4 (Gibco, #70011-044) and fixed in paraformaldehyde (PFA) 4% in PBS (#J61899, thermoscientific) for 15 min at room temperature (RT) and washed three times with 0.01% of Triton-X100 in PBS (PBST) to remove remaining PFA and to permeabilize the cells. Non-specific binding sites were blocked with 5% of Bovine Serum Albumin (BSA) solution (#9048-46-8, Millipore) in PBST for 60 minutes at RT. Rabbit monoclonal antibody β-III-tubulin (1:5,000, ab52623, Abcam) was applied overnight (O/N) at 4° C. Next day cells are washed three times in PBST, neurons were incubated with secondary antibody Donkey anti-rabbit IgG(H+L) Alexa Fluor™ Plus488 (1:5000 #A32790, Invitrogen) for 1 hour at RT. These coverslips were mounted on Gluoromount-G™, with 4′6-diamidino-2′henylindoldihydrochloride (DAPI) (#E141818, Invitrogen). The immunofluorescence images were analyzed using an Olympus VS110 slide scanner microscope.
B-III-Tubulin immunofluorescence was quantified using ImageJ. Briefly, Corrected Total Cell Fluorescence (CTCF) was acquired for at least ˜8-10 representative cells, where CTCF=Integrated Density−[Area of selected cell*Mean Fluorescence of background]. The CTCF values, referred to herein as ‘signal intensities’, were used to calculate overall means±SD for each treatment. One-Way ANOVA was used to compare treatments. Further, the mean of each treatment was compared with the mean of the control treatment (RA-differentiated cells treated with vehicle, 0.1% DMSO) using Dunnett's multiple comparison procedure. […]

5-HT2A receptor = molecular target: T1, 5-HT2A receptor (Homo sapiens, UniProt P28223); experiment: 5-HT2A receptor radioligand competition assay (SPA, [3H]ketanserin); assay type: binding; conditions: 1 nM [3H]ketanserin; membranes containing 5-HT2A; read-out: 5-HT2A, Ki
T1 construct: purchased PerkinElmer ES-313-M400UA
Protocol: Competition assays were performed as for 5-HT1A assays with the following differences. […] Determination of non-specific binding was carried out in the presence of […] of spiperone (S7395-250MG, Sigma-Aldrich). Equilibrium binding constant for ketanserin (Kd) was determined from saturation binding curves using the ‘one-site saturation binding analysis’ method in GraphPad PRISM software (Version 9.2.0).

[2] = molecular target: T2, human serotonin transporter (SERT) (Homo sapiens, UniProt P31645); experiment: biochemical; assay type: binding; conditions: 1 nM imipramine; membranes containing human SERT; read-out: SERT, Ki
T2 construct: purchased PerkinElmer RBHSTM400UA
Protocol: A commonly applied SERT binding assay involves competition binding assays employing radiolabelled ligands. […] Radioactive binding assays were carried out using the Scintillation Proximity Assay (SPA). For saturation binding assay, mixtures of 9 μg of membrane containing human SERT was pre-coupled to 1 mg of SPA beads at room temperature in a tube rotator for 1 hour in binding buffer (50 mM Tris-HCl pH7.4, 120 mM NaCl, 5 mM KCl, 1 mM ascorbic acid, 10 μM pargyline HCl). […] After incubation, the samples are read on a MicroBeta 2 Microplate Counter. Non-specific binding was carried out in the presence of 200 μM of clomipramine hydrochloride (C7291-1G, Sigma). Equilibrium binding constant for imipramine (KD) was determined from saturation binding curve using one-site saturation binding analysis from GraphPad PRISM software (Version 9.2.0). All test compounds were dissolved to 100 mM in DMSO and dilutions were carried out in assay buffer. […] Ki values were calculated from the competition displacement data using the competitive binding analysis from GraphPad PRISM software. […] Vehicle (DMSO) without drug was used as a negative control.

T1 sequence (P28223 whole entry): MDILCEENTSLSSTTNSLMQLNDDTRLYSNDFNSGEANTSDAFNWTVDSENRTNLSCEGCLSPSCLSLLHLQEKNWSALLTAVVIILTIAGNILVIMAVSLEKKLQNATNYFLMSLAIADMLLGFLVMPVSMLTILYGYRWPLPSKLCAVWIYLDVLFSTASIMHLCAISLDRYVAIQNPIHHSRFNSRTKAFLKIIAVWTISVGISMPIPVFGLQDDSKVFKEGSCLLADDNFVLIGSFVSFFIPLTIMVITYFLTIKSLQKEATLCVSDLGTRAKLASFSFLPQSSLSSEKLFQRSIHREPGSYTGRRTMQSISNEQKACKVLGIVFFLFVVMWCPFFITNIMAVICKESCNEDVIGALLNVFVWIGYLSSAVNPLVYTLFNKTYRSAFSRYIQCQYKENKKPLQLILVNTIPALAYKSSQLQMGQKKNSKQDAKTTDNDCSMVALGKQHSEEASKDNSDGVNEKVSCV
T2 sequence (P31645 whole entry): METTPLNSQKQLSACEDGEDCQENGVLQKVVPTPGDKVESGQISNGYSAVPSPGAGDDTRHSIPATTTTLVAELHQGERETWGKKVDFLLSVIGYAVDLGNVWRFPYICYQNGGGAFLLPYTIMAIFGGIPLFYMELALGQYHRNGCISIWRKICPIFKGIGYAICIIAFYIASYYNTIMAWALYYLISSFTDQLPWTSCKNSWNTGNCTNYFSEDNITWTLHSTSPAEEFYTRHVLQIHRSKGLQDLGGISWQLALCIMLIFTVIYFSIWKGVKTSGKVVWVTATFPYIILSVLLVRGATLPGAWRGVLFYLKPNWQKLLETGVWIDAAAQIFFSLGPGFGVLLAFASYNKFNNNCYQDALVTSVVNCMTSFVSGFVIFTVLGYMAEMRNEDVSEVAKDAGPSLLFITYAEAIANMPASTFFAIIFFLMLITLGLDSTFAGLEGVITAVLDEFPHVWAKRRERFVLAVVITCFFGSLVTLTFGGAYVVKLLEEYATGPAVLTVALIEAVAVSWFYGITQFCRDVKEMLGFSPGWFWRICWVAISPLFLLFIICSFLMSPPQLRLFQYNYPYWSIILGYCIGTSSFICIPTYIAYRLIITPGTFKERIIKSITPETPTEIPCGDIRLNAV

Row | Molecule | mean HTR (C57BL/6 mice) | HTR compared with the HTR response for 5-Br-DMT (one-way ANOVA, Dunnett) (C57BL/6 mice) | Evidence of neurite outgrowth: Yes (+) or No (−) [1] | Ki (5-HT2A receptor) | Ki [2] [µM]
1 | CCN(CC)CCc1c[nH]c2cc(F)cc(N3CCOCC3)c12 [Compound (XXVII)] | 8.0 | not statistically significantly higher | − | 5.4 µM and 5.38 µM | 
2 | CN(CCc1c[nH]c2cc(N3CCOCC3)c(F)cc12)Cc1ccccc1 [Compound (XX)] | 7.25 | not statistically significantly higher | + | 25.6 µM | 
3 | COc1ccc2c3c([nH]c2c1)CCN(C)CC3 [TBG, tabernanthalog, reference compound] |  |  | + | 0.8 µM | 
4 | COc1ccc2[nH]cc(CCN(C)C)c2c1 [Compound 5-MeO-DMT, 5-methoxy-dimethyltryptamine, reference compound] |  |  | + |  | 
5 | CN(C)CCc1c[nH]c2cc(N3CCN(C)CC3)cc(F)c12 [Compound (XXI)] | 9.25 | not statistically significantly higher |  |  | 
6 | N[C@@H](Cc1c[nH]c2ccccc12)C(=O)O [tryptophan, reference compound] |  |  |  | > 1000 µM | 
7 | CN(C)CCc1c[nH]c2cc(F)c(N3CCN(C)CC3)cc12 [Compound (XXV)] | 8.5 | not statistically significantly higher | − |  | 
8 | CN(C)CCc1c[nH]c2ccc(N3CCOCC3)cc12 [Compound (V)] | 7.8 | not statistically significantly higher | + | 15 µM | 
9 | CN(C)CCc1c[nH]c2cc(F)c(N3CCN(c4ccccc4)CC3)cc12 [Compound (XXVI)] | 8.25 | not statistically significantly higher |  |  | 
10 | CN(C)CCc1c[nH]c2cc(N3CCOCC3)c(F)cc12 [Compound (XI)] | 10.5 |  | − | 0.71 µM | 
11 | CN(C)CCc1c[nH]c2cc(F)cc(N3CCCC3)c12 [Compound (XIII)] | 7.75 | not statistically significantly higher | + | 2.96 µM | 
12 | CN(C)CCc1c[nH]c2cc(N3CCOCC3)ccc12 [Compound (VIII)] | 8.0 | not statistically significantly higher | − | 10.9 µM | 
13 | CN(C)CCc1c[nH]c2cc(Cl)cc(N3CCN(C)CC3)c12 [Compound (XXIII)] | 7.25 | not statistically significantly higher | + | 12.5 µM | 
14 | CCN(CC)CCc1c[nH]c2cc(F)ccc12 [Compound 6-F-DET, 6-fluoro-diethyltryptamine, reference compound] |  |  | + | 0.35 µM | 
15 | CN(C)CCc1c[nH]c2cc(N3CCCC3)ccc12 [Compound (X)] | 7.25 | not statistically significantly higher | + | 7.8 µM | 
16 | 5-bromo-dimethyltryptamine [Compound 5-Br-DMT, reference compound] |  |  | + |  | 
17 | CN(C)CCc1c[nH]c2cc(F)c(N3CCOCC3)cc12 [Compound (VII)] | 7.75 | not statistically significantly higher | + | 63.9 µM | 
18 | CN(C)CCc1c[nH]c2ccc(N3CCC3)cc12 [Compound (VI)] | 11.5 |  | + | 12 µM | 
19 | CC(=O)c1[nH]c2cc(F)c(N3CCOCC3)cc2c1CCN(C)C [Compound (IX)] | 9.25 | not statistically significantly higher | − | 14.2 µM | 
20 | COc1cc(CCN)c(OC)cc1Br [Compound 2C-B, reference compound] |  |  |  |  | 11.4
21 | C[C@@H](N)[C@H]1CC[C@H](C(=O)Nc2ccncc2)CC1 [RhoK, reference compound] |  |  | + |  | 
22 | CN(C)CCc1c[nH]c2cc(Cl)cc(N3CCOCC3)c12 [Compound (XXII)] | 6.5 | not statistically significantly higher |  |  | 
23 | CN(C)CCc1c[nH]c2cc(N3CCOCC3)cc(F)c12 [Compound (XVI)] | 6.75 | not statistically significantly higher |  | 6.2 µM and 6.19 µM | 
24 | CN(C)CCc1c[nH]c2cc(F)cc(N3CCN(C)CC3)c12 [Compound (XIX)] | 11.5 |  |  |  | 
25 | CN(C)CCc1c[nH]c2cc(N3CCCC3)c(F)cc12 [Compound (XIV)] | 9.0 | not statistically significantly higher | + | 3.1 µM and 3.06 µM | 

From patent US12577232B2, “N-heterocycle substituted tryptamine derivatives and methods of using” (ENVERIC B[…] INC., priority 2024, dated 2026)
